Measured values as given in patent US20070015822A1, “Methods for selectively treating COX-2 mediated disorders by administering gamma-tocopherol” (priority 2005, published 2007).
Where two headings read alike, the source gives them in different places.

Columns and labels:
Assay type in all cases: in vivo, dog
COX-2 = molecular target: T1, COX-2 (Canis lupus familiaris, UniProt Q8SPQ9); experiment: COX-2 IC50 determination in dogs; set-up: from tissue; conditions: for COX-1:COX-2: ratio of COX-1 IC50 to COX-2 IC50 (selectivity)
T1 sequence (Q8SPQ9 18-604): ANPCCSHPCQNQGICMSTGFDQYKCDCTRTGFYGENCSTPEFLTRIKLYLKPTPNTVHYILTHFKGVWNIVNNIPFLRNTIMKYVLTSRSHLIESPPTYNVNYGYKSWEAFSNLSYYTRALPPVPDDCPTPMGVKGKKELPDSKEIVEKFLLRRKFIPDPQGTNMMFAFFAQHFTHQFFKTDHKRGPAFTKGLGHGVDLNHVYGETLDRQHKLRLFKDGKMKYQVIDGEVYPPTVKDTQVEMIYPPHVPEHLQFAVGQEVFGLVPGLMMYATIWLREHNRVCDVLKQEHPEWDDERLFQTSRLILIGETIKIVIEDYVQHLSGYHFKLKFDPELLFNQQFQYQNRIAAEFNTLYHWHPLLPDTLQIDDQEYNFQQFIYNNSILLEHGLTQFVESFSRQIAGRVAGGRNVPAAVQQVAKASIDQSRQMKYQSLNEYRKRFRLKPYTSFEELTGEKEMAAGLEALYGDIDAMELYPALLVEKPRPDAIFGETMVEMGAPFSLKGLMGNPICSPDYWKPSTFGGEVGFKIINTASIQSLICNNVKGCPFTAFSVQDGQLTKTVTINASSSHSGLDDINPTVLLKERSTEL

COX-1 = molecular target: T2, COX-1 (Canis lupus familiaris, UniProt Q8HZR1); experiment: COX-1 IC50 determination in dogs; conditions: six dogs; γ-tocopherol tested as tocopherol composition comprising 66.6% gamma-tocopherol
T2 construct: from tissue
T2 sequence (Q8HZR1 28-603): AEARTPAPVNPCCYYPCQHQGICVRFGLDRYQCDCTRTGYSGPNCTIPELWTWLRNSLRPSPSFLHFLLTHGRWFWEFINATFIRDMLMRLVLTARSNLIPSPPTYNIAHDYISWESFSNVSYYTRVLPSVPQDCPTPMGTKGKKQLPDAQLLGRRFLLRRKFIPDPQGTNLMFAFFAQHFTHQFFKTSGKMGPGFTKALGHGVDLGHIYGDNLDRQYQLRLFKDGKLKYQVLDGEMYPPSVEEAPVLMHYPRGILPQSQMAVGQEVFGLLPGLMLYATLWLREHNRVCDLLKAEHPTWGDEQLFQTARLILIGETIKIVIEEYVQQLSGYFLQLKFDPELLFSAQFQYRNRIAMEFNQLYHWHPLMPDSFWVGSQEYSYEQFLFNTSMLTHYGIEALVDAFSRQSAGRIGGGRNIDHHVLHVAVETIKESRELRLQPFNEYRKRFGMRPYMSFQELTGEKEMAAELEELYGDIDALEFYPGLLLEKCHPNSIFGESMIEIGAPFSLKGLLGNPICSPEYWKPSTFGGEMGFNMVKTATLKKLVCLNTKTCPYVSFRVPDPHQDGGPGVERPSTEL

urate-induced lameness = experiment: crystal urate-induced lameness model in dogs; conditions: 10 or 100 mg/kg body weight, 66.4% w/w or 90.9% w/w gamma-tocopherol
Experimental: A study was conducted to evaluate the effectiveness of the inventive formulations using the crystal urate-induced lameness model dogs. Formulations according to the invention and comprising 66.4% w/w or 90.9% w/w gamma-tocopherol and at 10 and 100 mg/kg body weight were administered to the dogs.

[1] = six dogs, γ-tocopherol tested as tocopherol composition comprising 66.6% gamma-tocopherol, read-out: COX-2 IC50

IC50 (COX-2; [1]) [µM]	COX-1 IC50 (COX-1)	SMILES	IC50 (COX-2) [µM]	COX-1:COX-2 (COX-2)	IC50 (COX-1) [µM]	degree of force upon the urate-treated joints tolerated (urate-induced lameness; FIGS. 3-4)	degree of lameness (urate-induced) (urate-induced lameness; after 8 hours, FIGS. 1-2)
–	–	CC(C(=O)O)c1ccc2c(c1)[nH]c1ccc(Cl)cc12 (stereo not shown) [Carprofen]	10	7	68.6	–	–
0.31	–	CC1(C)OC(=O)C(OCC2CC2)=C1c1ccc(S(C)(=O)=O)cc1 [Firocoxib]	–	384	119	–	–
27.8	No activity	Cc1c(O)cc2c(c1C)O[C@](C)(CCC[C@H](C)CCC[C@H](C)CCCC(C)C)CC2 [γ-Tocopherol, 3,4-dihydro-2,7,8-trimethyl-2-(4,8,12-trimethyltridecyl)-2H-1-benzyopyran-6-ol]	–	–	–	increased	Improvement in the degree of lameness
